The target in experiment [1] is T1, human liver cathepsin B (Homo sapiens, UniProt P07858).
T1 construct: human liver cathepsin B (MilliporeSigma); purchased MilliporeSigma; host or cells: human liver
As to the kind of experiment: In vitro cathepsin inhibitory assay (Z-Phe-Arg-AMC fluorescence). Particulars: 15 ng/mL cathepsin B, 20 µM Z-Phe-Arg-AMC, 15 min, 37°C, pH 5.5; mean of two experiments. The class given is biochemical. On the procedure:
(§1) Cathepsins K, B, and L were selected because of their known roles in cell death and early release following lysosomal membrane permeabilization. The inhibitory activities of cathepsin inhibitors were assessed in vitro using human recombinant cathepsin K (MilliporeSigma), human liver cathepsin B (MilliporeSigma), and human liver cathepsin L (MilliporeSigma). Cathepsins and the cathepsin substrate, Z-Phe-Arg-AMC (PEPTIDE INSTITUTE, INC.), were dissolved in 50 mM sodium acetate buffer (pH 5.5) containing 2 mM dithiothreitol and 2 mM EDTA. A cathepsin K inhibitor, Odanacatib (Selleck Chemicals, Houston, TX, USA), and a cathepsin L inhibitor, SID26681509 (Bio-Techne Corporation), were dissolved in dimethyl sulfoxide (DMSO) (Nacalai Tesque, Kyoto, Japan) before use in the assay. The final concentration of DMSO in the reaction solution was 2%. The cathepsin substrate, 20 µM Z-Phe-Arg-AMC, was incubated for 15 min with 20 ng/mL cathepsin K, 15 ng/mL cathepsin B, or 50 ng/mL cathepsin L, with or without each inhibitor at a final concentration of 0.001 nM to 100 µM in 100 µL of mixed reaction solution in a 96-well plate at 37 °C. The fluorescence was measured using a microplate reader (GloMax Discover System; Promega). IC50 values from two independent experiments were averaged.

The target of experiment [2] is T2, human liver cathepsin L (Homo sapiens, UniProt P07711).
T2 construct: human liver cathepsin L (MilliporeSigma); purchased MilliporeSigma; host or cells: human liver
The description is as above. Particulars: 50 ng/mL cathepsin L, 20 µM Z-Phe-Arg-AMC, 15 min, 37°C, pH 5.5; mean of two experiments. The class given is biochemical. How it is done: as §1

The target in experiment [3] is T3, human recombinant cathepsin K (Homo sapiens, UniProt P43235).
T3 construct: purchased MilliporeSigma
T3 sequence (P43235 115-329): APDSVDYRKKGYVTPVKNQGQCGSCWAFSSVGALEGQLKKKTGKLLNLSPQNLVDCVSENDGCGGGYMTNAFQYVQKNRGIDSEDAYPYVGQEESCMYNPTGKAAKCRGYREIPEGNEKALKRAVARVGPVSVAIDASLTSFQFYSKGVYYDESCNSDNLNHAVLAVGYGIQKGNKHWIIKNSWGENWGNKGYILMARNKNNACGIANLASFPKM
Described as above. Particulars: 20 ng/mL cathepsin K, 20 µM Z-Phe-Arg-AMC, 15 min, 37°C, pH 5.5; mean of two experiments. The class given is biochemical. On the procedure:
as §1

The test system of experiment [4] is calpains 1 and 2 in monkey retinal lysate. In words: In vitro inhibitory assay of calpains from retinal lysate (CaCl2, immunoblotting). The class given is biochemical. To be noted: non-cultured monkey retina lysate, 10 mM CaCl2, 2 hr, 37°C; inhibitor at 1, 10 and 100 µM. How it is done:
Each retinal explant was sonicated in RIPA Lysis and Extraction Buffer (Thermo Fisher Scientific), with protease inhibitors cocktail (Complete Mini-EDTA-free; MilliporeSigma). Protein concentrations in lysates were measured by BCA assay (Pierce BCA Protein Assay Kit, Thermo Fisher Scientific) using bovine serum albumin as a standard. For immunoblotting, 5 μg of each sample was loaded and run on 4% to 12% gradient or 10% SDS-PAGE gels (NuPAGE Bis-Tris Protein Gels, Thermo Fisher Scientific) with 2-(N-morpholino)ethanesulfonic acid buffer or 3-(N-morpholino) propanesulfonic acid buffer (Thermo Fisher Scientific). Proteins were then electrotransferred to a polyvinylidene fluoride membrane (MilliporeSigma) at 100 V for 60 min or 1.5 hr. Membranes were then blocked with 5% skim milk in Tris-buffer saline (Bio-Rad Laboratories, Hercules, CA, USA) containing 0.05% Tween 20. Each membrane was probed with primary antibodies against α-spectrin (1:2000 dilution, Enzo Life Sciences, Farmingdale, NY, USA), SBDP150 (1:1000 dilution, Senju Pharmaceutical), calpain 1 (1:1000 dilution, Thermo Fisher Scientific), calpain 2 (1:500, GeneTex, Irvine, CA, USA), cathepsin K (1:500 dilution, Abcam), and β-actin (1:1000 dilution, Merck). For calpain 1, immunoreactivity was visualized using a secondary antibody conjugated to alkaline phosphatase and the AP Conjugate Substrate Kit (Bio-Rad Laboratories). For other proteins, immunoreactivities were visualized using secondary antibodies conjugated with rabbit (Santa Cruz Biotechnology) or mouse horseradish peroxidase enzyme (Cytiva, Wilmington, DE, USA) and ECL Plus detection reagents (Cytiva). Images of the membranes were captured with FluorChem FC2 imager (Cell Biosciences, Santa Clara, CA, USA). The conversion of pro-cathepsin K (38 kDa) to its mature form (27 kDa) was used as an indicator of cathepsin K activation.
To confirm the isozyme specificities of calpain inhibitors in vitro, non-cultured monkey retinas were sonicated in a buffer containing 20 mM Tris (pH 7.5), 5 mM EGTA, 5 mM EDTA, 2 mM DTE. […]
(In general: In western blotting, separated proteins are transferred to a membrane and probed.)

The subject of experiment [5] is RGCs in monkey retinal explants. Further details: method as in PMID 26393472, PMID 33156340. To be noted: human and monkey retinal explants treated with hypoxia; cited from earlier work.
In experiment [6] the test system is calpain 1 activation and proteolysis of α-spectrin. Further details: method as in PMID 26393472. To be noted: immunoblotting of hypoxic retinal explants; cited from earlier work.

Molecules are shown by their SMILES.

For orientation: IC50 means the concentration that gives 50% inhibition.

T2 sequence (P07711 114-333): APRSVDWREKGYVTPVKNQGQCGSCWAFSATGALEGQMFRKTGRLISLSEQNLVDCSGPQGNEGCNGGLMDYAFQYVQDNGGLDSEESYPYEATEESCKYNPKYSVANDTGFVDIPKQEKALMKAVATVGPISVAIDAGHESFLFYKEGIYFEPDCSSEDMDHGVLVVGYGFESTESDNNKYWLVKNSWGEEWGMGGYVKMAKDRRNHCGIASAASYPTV

Turning to `CC(C)(F)C[C@H](N[C@@H](c1ccc(-c2ccc(S(C)(=O)=O)cc2)cc1)C(F)(F)F)C(=O)NC1(C#N)CC1` [Odanacatib], the IC50 in experiment [1] was found to be 167 nM; in experiment [2], 5130 nM; in experiment [3], 0.28 nM.

As to `CCc1ccccc1NC(=O)CSC(=O)NNC(=O)[C@H](Cc1c[nH]c2ccccc12)NC(=O)OC(C)(C)C` [SID26681509], the IC50 in experiment [1] is 495 nM; in experiment [2], 60 nM; in experiment [3], 1520 nM.

As to `COCCOCCOC(=O)N[C@@H](CC(C)C)C(=O)N[C@@H](Cc1ccccc1)C(=O)C(=O)NC1CC1` [SNJ-1945], the “Effect on calcium-induced activation (autolysis) of calpains 1 and 2 and SBDP150 in retinal lysate” value in experiment [4] is “inhibited the activation of both calpain 1 and calpain 2 in a dose-dependent manner”. For the same molecule, the “Effect on RGC damage in hypoxic retinal explants” value in experiment [5] is “partially inhibited RGC damage”. In experiment [6], the “Effect on autolysis of calpain 1 in hypoxic retinal explants” value is “inhibited the autolysis of calpain 1” and the “Effect on autolysis of calpain 2 in hypoxic retinal explants” value is given as “did not affect”.
